“Also recorded” adds a separate entry of the source. Marks after values point to notes of the source that are not given here.

This note sets out measurements from patent publication US10865207B2, “Compounds for imaging Tau protein aggregates” (AC IMMUNE S.A., priority 2016, dated 2020).

In one series the target is T1, MAO B (Homo sapiens, UniProt P27338).
T1 construct: 20 μg of human brain homogenate (without AD pathology); from tissue; host or cells: human brain homogenate without AD pathology
T1 sequence (P27338 1-520): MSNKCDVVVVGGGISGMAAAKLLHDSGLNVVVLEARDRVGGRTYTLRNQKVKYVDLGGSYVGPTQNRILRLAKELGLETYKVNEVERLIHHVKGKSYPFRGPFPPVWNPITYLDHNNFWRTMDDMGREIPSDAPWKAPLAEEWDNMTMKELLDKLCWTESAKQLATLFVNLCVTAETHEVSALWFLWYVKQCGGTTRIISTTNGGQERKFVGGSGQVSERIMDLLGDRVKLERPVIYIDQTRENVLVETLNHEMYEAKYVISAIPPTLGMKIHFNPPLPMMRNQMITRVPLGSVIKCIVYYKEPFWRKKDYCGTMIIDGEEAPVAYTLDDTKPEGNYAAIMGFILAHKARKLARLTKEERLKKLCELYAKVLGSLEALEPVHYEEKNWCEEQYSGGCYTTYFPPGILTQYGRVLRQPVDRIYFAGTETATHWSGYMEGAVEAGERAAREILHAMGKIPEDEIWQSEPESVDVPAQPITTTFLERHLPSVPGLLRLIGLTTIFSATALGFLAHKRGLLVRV
Nature of the series: MAO B 18F-fluoro deprenyl competition assay in human HC brain homogenate. It counts as binding. Also on record: Low affinity to MAO B (grade): key: −: poor; ∘: moderate; +: good; ++: very good; +++: excellent. Here is the method:
The samples were shaken at 110 rpm for 45 min at 37° C. Samples were then filtered through GF/B 96 well filter plates and washed twice with 300 μL assay buffer (PBS containing 0.1% BSA and 2% DMSO). Thereafter, filter plates were sealed and a Fuji Film Imaging Plate (BAS-SR2025) was placed on top. The imaging plate was analyzed after overnight exposition using a Fuji Film BAS-5000. […] IC50 values were calculated by Prism V6 (GraphPad) setting total binding to 100%.

For another series, the target named is amyloid-beta (Homo sapiens, UniProt P05067). The series can be described thus: Competition binding to amyloid-beta in AD brain homogenate. To be noted: for IC50: fluorine-19 derivatives. Here is the method: 20 μg of human Alzheimer disease brain homogenate was incubated with a dilution series of each test compound (1000 to 0.06 nM) in the presence of 800 Bq of ^18F-labeled beta-amyloid binder. The samples were shaken at 110 rpm for 45 min at 37° C. Samples were then filtered through GF/B 96 well filter plates and washed twice with 300 μL assay buffer (PBS containing 0.1% BSA and 2% DMSO). Thereafter, filter plates were sealed and a Fuji Film Imaging Plate (BAS-SR2025) was placed on top. The imaging plate was analyzed after overnight exposition using a Fuji Film BAS-5000. Non-specific signal was determined with samples containing ^18F-labeled beta-amyloid binder in the presence of assay buffer without brain substrate and competitor. […] The unblocked ^18F-labeled beta-amyloid binder signal was defined as total binding. IC50 values were calculated by Prism V6 (GraphPad) setting total binding to 100%.

A short description of series [1]: Autoradiography on healthy control (HC) human brain slices. Format: binding. Here is the method: (§1) 18 micron thick frozen human brain slices and 6 micron thick human FFPE brain slices were examined via autoradiography. Brain sections were equilibrated for at least 1 h in 1×PBS solution prior to use in the experiment. Each brain section was covered with a solution of the ^18F-labeled tracer (200 Bq/μl, 500 μl) in 1×PBS. For blocking experiments with the corresponding ^19F-compound, an excess of the blocking compound (10 μM) was mixed with the ^18F-compound. The brain sections were allowed to incubate with the tracer solution at room temperature for 1 h, drained afterwards and placed in a slide holder. The slides were then washed sequentially with 1×PBS for 1 min; 70% EtOH in 1×PBS for 2 min; 30% EtOH in 1×PBS for 2 min; and 1×PBS for 1 min. The slides were allowed to air-dry before being placed on Fuji imaging plates […] for overnight exposure. The imaging plates were scanned and the signal was measured using Fuji software to produce an autoradiographic image of the brain section.

Series [2] deals with T2, Tau in PiD brain sections (Homo sapiens, UniProt P10636).
T2 construct: frozen human brain slices; from tissue; host or cells: human PiD brain slices
The series can be described thus: Autoradiography on human PiD brain slices. Format: binding. Here is the method:
as §1

The test system of another series is Tau in AD brain sections. The series can be described thus: Autoradiography on human AD brain slices. Format: binding. The method, then:
as §1

Series [3] concerns the target T3, Tau in PSP brain sections (Homo sapiens, UniProt P10636).
T3 construct: frozen human brain slices; from tissue; host or cells: human PSP brain slices
The series can be described thus: Autoradiography on human PSP brain slices. Format: binding. Here is the method:
as §1

The next series concerns Tau pathology. The series can be described thus: Human imaging study (PET in AD subjects and non-demented controls). It counts as in vivo. Here is the method: In a clinical trial, subjects with AD as well as non-demented controls (NDC) underwent dynamic PET imaging for over 3 h following 370 MBq bolus injection of ^18F-4.
The subject of series [4] is Tau (AD brain homogenate vs healthy control brain homogenate). The series can be described thus: Tracer signal-to-noise ratio, AD brain homogenate vs healthy control brain homogenate. Also on record: High signal to noise (grade), AD brain / HC brain homogenate / High signal to noise (further homogenates) (grade): key to the marks not given beside the values. Format: binding, human.

In series [5] the test system is Tau (AD brain vs mouse brain homogenate). The series can be described thus: Tracer signal ratio, AD brain vs mouse brain homogenate. It counts as binding, human. Further details: High signal to noise (grade), AD brain / mouse brain homogenate: key: −: poor; ∘: moderate; +: good; ++: very good; +++: excellent.
The mark [6] stands for this setting: further AD brain homogenate vs HC brain homogenate.

Chain of amyloid-beta (P05067 whole entry): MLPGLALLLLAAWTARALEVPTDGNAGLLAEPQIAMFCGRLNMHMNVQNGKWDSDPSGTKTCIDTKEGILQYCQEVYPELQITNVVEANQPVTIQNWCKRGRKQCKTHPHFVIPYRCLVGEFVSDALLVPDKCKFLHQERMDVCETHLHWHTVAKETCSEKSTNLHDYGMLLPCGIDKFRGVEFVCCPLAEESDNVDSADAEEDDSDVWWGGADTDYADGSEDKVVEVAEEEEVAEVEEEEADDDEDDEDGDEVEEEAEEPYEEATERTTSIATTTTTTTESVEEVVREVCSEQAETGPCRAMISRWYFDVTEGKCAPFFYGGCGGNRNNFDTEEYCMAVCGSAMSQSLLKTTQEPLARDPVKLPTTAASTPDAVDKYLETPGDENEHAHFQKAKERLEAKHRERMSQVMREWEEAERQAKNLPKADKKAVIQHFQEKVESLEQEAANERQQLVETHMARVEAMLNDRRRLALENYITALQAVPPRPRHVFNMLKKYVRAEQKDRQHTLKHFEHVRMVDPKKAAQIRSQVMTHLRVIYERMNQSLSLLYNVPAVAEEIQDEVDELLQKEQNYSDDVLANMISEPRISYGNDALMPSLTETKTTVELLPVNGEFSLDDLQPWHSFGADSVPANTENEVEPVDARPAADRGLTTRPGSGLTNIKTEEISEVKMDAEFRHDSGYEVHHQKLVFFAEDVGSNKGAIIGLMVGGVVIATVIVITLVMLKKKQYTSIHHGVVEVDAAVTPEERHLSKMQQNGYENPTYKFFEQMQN
T2 sequence (P10636 1-410 isoform P10636-5): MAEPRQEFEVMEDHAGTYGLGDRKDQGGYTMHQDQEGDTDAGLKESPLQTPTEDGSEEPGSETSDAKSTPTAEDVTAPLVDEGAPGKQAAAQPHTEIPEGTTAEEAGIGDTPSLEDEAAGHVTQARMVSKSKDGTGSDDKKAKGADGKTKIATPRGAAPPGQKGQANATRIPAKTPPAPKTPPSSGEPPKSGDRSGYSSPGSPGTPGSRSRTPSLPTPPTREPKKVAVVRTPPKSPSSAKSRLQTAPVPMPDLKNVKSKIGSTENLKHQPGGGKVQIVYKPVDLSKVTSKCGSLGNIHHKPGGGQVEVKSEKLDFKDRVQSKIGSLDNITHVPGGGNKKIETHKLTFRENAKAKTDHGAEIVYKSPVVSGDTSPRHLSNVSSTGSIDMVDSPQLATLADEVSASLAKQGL
T3 sequence (P10636 1-441 isoform P10636-8): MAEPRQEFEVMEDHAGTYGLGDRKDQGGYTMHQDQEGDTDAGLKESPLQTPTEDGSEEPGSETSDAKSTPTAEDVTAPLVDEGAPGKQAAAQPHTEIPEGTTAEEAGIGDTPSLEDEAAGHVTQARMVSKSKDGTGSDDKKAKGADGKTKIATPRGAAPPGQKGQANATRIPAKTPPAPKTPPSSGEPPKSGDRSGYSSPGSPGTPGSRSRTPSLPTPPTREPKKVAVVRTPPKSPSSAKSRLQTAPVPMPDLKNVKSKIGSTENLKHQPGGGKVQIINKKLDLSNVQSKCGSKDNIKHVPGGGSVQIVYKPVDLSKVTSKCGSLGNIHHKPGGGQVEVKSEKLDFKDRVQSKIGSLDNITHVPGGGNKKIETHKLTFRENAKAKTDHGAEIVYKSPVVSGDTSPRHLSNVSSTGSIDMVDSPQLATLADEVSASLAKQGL

Regarding `Fc1ncccc1-c1ccc2c(n1)[nH]c1ccncc12` [Compound F-4], the IC50 at MAO B and on amyloid-beta was > 1000 nM each time.
As for `[18F]c1ncccc1-c1ccc2c(n1)[nH]c1ccncc12` [Compound ^18F-4], the “Autoradiography signal in healthy control (HC) sections (in words)” value in series [1] is on record as “no specific signal was visible”. In addition, the IC50 at MAO B was > 1000 nM. Besides, at MAO B (HC brain homogenate), the “fold higher MAO B IC50 than compound 18F-1” value is > 5 fold. For the same molecule, the “Low affinity to MAO B (grade)” value on MAO B (Table 1) is recorded as “+++”. For the same molecule, the “Low affinity to amyloid-beta (grade)” value at amyloid-beta (Table 1) is “+++^a)”. Besides, at amyloid-beta, the IC50 is > 1000 nM. The “Autoradiography signal in PiD brain sections (in words)” value in [2] is listed as “strong signal”. Also, in [2] (in house data), the “Binding to PiD brain slices by autoradiography (grade)” value is “+++^a)”. For the same molecule, the “Autoradiography signal in AD brain sections (in words)” value in the series on Tau in AD brain sections (blockable with excess cold compound) was “strong punctated staining; also recorded: Specific binding”. Moreover, in the series with Tau in AD brain sections (in house data), the “Binding to AD brain (Braak stage 1/3) by autoradiography (grade)” value is given as “+++^a)” and the “Binding to AD brain (Braak stage 5/6) by autoradiography (grade)” value was “+++^a)”. The “Autoradiography signal in PSP brain sections (in words)” value in series [3] is given as “strong signal”. Further, the “Binding to PSP brain slices by autoradiography (grade)” value in series [3] (in house data) is listed as “+++^a)”. In addition, in the series with Tau pathology (370 MBq bolus, dynamic PET), the “brain uptake in human subjects (in words)” value is “good brain uptake” and the “washout from non-target brain regions in human subjects (in words)” value is “fast washout”. In addition, the “uptake in AD subjects (in words)” value in the series with Tau pathology (AD subjects) was “focal asymmetric uptake was evident in temporal, parietal and frontal lobes”. For the same molecule, in the series on Tau pathology (NDC subjects), the “uptake in choroid plexus, basal ganglia, striatum, amygdala, meninges in non-demented controls (in words)” value is reported as “no increased uptake”. Further, the “fold higher signal to noise ratio than 18F-1” value in series [4] (AD vs HC brain homogenate) stood at 7.7 fold. Further, in series [4] (Table 1), the “High signal to noise (further homogenates) (grade)” value is “+++” and the “High signal to noise (grade), AD brain / HC brain homogenate” value is “+++”. Besides, in series [4] (setting [6]), the “fold higher signal to noise ratio than 18F-1” value was 7.2-11 fold and the “fold higher signal to noise ratio than 18F-2” value is reported as 3.7-4.0 fold. In [5] (18F tracer), the “Ratio of tracer signal AD brain / signal in mouse brain homogenate” value is 15.1^a). Moreover, in series [5] (AD brain homogenate vs whole mouse brain homogenate), the “fold higher signal to noise ratio than 18F-1” value is listed as 6.9 fold. Moreover, the “High signal to noise (grade), AD brain / mouse brain homogenate” value in series [5] (Table 1) was “+++”.

In general, IC50 refers to the concentration that inhibits the measured activity by half.
